Laboratory results published in patent US7189351B2, “D-tagatose as an anti-biofilm agent” (priority 2001, dated 2007).

Assays:
[1] = test system: Actinomyces naeslundii PK947/Streptococcus oralis C104; experiment: reversal of coaggregation, visual score; type: cell-based; set-up: key to reversal of coaggregation: *: Coaggregations were reversed by both D-galactose and D-tagatose; details: for reversal of coaggregation: pair Cl04/PK947, coaggregation score 2 without sugar; for coaggregation score: pair PK947/C104, water score 2, scale 0 no visible to 4 maximum coaggregation
Method: (§1) Fifteen oral isolates, including both early colonizers (Streptococcus and Actinomyces) and late colonizers (Fusobacterium, Porphyromonas, Prevotella, Veillonella, Capnocytophaga, and Actinobacillus), were tested for their ability to coaggregate with each other, followed by testing for the reversal of coaggregation by the addition of D-tagatose. Bacterial strains used were of human gingival crevice origin. The coaggregation was examined visually by a scoring system ranging from 0 for no visible coaggregation to 4 for maximum coaggregation [Cisar J. O., Kolenbrander P. E., and McIntire F. C., “Specificity of coaggregation reactions between human oral streptococci and strains of Actinomyces viscosus or Actinomyces naeslundii”, Infect. Immun., 24:742–752. 1979]. D-Tagatose, at a concentration of less than 750 mM, completely reversed the coaggregation of 17 (60%) of 28 strong coaggregating pairs (with a coaggregation score of 2 or higher) tested. […] These D-tagatose sensitive coaggregations were D-galactose reversible as well.
(§2) Pairs of various species of oral bacteria were tested for coaggregation, and for reversal of coaggregation when D-tagatose or D-galactose was administered.

[2] = test system: Actinomyces naeslundii PK29/Streptococcus mitis J22; experiment: reversal of coaggregation, visual score; type: cell-based; set-up: key to reversal of coaggregation: *: Coaggregations were reversed by both D-galactose and D-tagatose; details: for reversal of coaggregation: pair J22/PK29, coaggregation score 4 without sugar; for coaggregation score: pair PK29/J22, water score 4, scale 0 no visible to 4 maximum coaggregation
Method: as §1, §2

[3] = test system: Actinomyces naeslundii PK947/Streptococcus mitis J22; experiment: reversal of coaggregation, visual score; type: cell-based; set-up: key to reversal of coaggregation: *: Coaggregations were reversed by both D-galactose and D-tagatose; details: for reversal of coaggregation: pair J22/PK947, coaggregation score 2 without sugar; for coaggregation score: pair PK947/J22, water score 2, scale 0 no visible to 4 maximum coaggregation
Method: as §1, §2

[4] = test system: Actinomyces naeslundii PK947/Streptococcus oralis SO34; experiment: reversal of coaggregation, visual score; type: cell-based; set-up: key to reversal of coaggregation: *: Coaggregations were reversed by both D-galactose and D-tagatose; details: for coaggregation score: pair PK947/SO34, water score 3, scale 0 no visible to 4 maximum coaggregation; for reversal of coaggregation: pair SO34/PK947, coaggregation score 3 without sugar
Method: as §1, §2

[5] = test system: F. nucleatum PK1594 and P. gingivalis PK1924; experiment: phase-contrast photomicrographs of coaggregation; type: cell-based, Fusobacterium nucleatum; Porphyromonas gingivalis
[6] = test system: Fusobacterium nucleatum PK1594/Actinobacillus actinomycetemcomitans JP2; experiment: reversal of coaggregation, visual score; type: cell-based; set-up: key to coaggregation score without sugar: *: Coaggregations were reversed by both D-galactose and D-tagatose; details: pair PK1594/JP2; for coaggregation score without sugar: coaggregation score 3 without sugar; for coaggregation score: water score 3, scale 0 no visible to 4 maximum coaggregation
Method: as §1, §2

[7] = test system: Streptococcus morbillorum PK509/Streptococcus oralis C104; experiment: reversal of coaggregation, visual score; type: cell-based; set-up: key to coaggregation score without sugar: *: Coaggregations were reversed by both D-galactose and D-tagatose; details: for coaggregation score without sugar: pair Cl04/PK509, coaggregation score 3 without sugar; for coaggregation score: pair PK509/C104, water score 3, scale 0 no visible to 4 maximum coaggregation
Method: as §1, §2

[8] = test system: Fusobacterium nucleatum PK1594/Veillonella atypica PK1910; experiment: reversal of coaggregation, visual score; type: cell-based; set-up: key to coaggregation score without sugar: *: Coaggregations were reversed by both D-galactose and D-tagatose; details: pair PK1594/PK1910; for coaggregation score without sugar: coaggregation score 3 without sugar; for coaggregation score: water score 3, scale 0 no visible to 4 maximum coaggregation
Method: as §1, §2

[9] = test system: Prevotella loescheii PK1295/Streptococcus mitis J22; experiment: reversal of coaggregation, visual score; type: cell-based; set-up: key to coaggregation score without sugar: *: Coaggregations were reversed by both D-galactose and D-tagatose; details: for coaggregation score without sugar: pair J22/PK1295, coaggregation score 3 without sugar; for coaggregation score: pair PK1295/J22, water score 4, scale 0 no visible to 4 maximum coaggregation
Method: as §1, §2

[10] = test system: Actinomyces naeslundii PK29/Streptococcus oralis SO34; experiment: reversal of coaggregation, visual score; type: cell-based; set-up: key to coaggregation score without sugar: *: Coaggregations were reversed by both D-galactose and D-tagatose; details: for coaggregation score: pair PK29/SO34, water score 4, scale 0 no visible to 4 maximum coaggregation; for coaggregation score without sugar: pair SO34/PK29, coaggregation score 4 without sugar
Method: as §1, §2

[11] = test system: Streptococcus morbillorum PK509/Streptococcus oralis SO34; experiment: reversal of coaggregation, visual score; type: cell-based; set-up: key to coaggregation score without sugar: *: Coaggregations were reversed by both D-galactose and D-tagatose; details: for coaggregation score: pair PK509/SO34, water score 2, scale 0 no visible to 4 maximum coaggregation; for coaggregation score without sugar: pair SO34/PK509, coaggregation score 2 without sugar
Method: as §1, §2

[12] = test system: Veillonella atypica PK1910/Streptococcus oralis SO34; experiment: reversal of coaggregation, visual score; type: cell-based; set-up: key to coaggregation score without sugar: *: Coaggregations were reversed by both D-galactose and D-tagatose; details: for coaggregation score: pair PK1910/SO34, water score 3, scale 0 no visible to 4 maximum coaggregation; for coaggregation score without sugar: pair SO34/PK1910, coaggregation score 3 without sugar
Method: as §1, §2

[13] = test system: Streptococcus morbillorum PK509/Prevotella loescheii PK1295; experiment: reversal of coaggregation, visual score; type: cell-based; set-up: key to coaggregation score without sugar: *: Coaggregations were reversed by both D-galactose and D-tagatose; details: pair PK509/PK1295; for coaggregation score without sugar: coaggregation score 2 without sugar; for coaggregation score: water score 2, scale 0 no visible to 4 maximum coaggregation
Method: as §1, §2

[14] = test system: Fusobacterium nucleatum PK1594/Porphyromonas gingivalis PK1924; experiment: reversal of coaggregation, visual score; type: cell-based; set-up: key to coaggregation score without sugar: *: Coaggregations were reversed by both D-galactose and D-tagatose; details: pair PK1594/PK1924; for coaggregation score without sugar: coaggregation score 4 without sugar; for coaggregation score: water score 4, scale 0 no visible to 4 maximum coaggregation
Method: as §1, §2

[15] = test system: Streptococcus morbillorum PK509/Veillonella atypica PK1910; experiment: reversal of coaggregation, visual score; type: cell-based; set-up: key to coaggregation score without sugar: *: Coaggregations were reversed by both D-galactose and D-tagatose; details: pair PK509/PK1910; for coaggregation score without sugar: coaggregation score 2 without sugar; for coaggregation score: water score 2, scale 0 no visible to 4 maximum coaggregation
Method: as §1, §2

[16] = test system: Actinomyces naeslundii PK29/Streptococcus oralis C104; experiment: reversal of coaggregation, visual score; type: cell-based; set-up: key to coaggregation score without sugar: *: Coaggregations were reversed by both D-galactose and D-tagatose; details: for coaggregation score without sugar: pair Cl04/PK29, coaggregation score 4 without sugar; for coaggregation score: pair PK29/C104, water score 4, scale 0 no visible to 4 maximum coaggregation
Method: as §1, §2

[17] = test system: Veillonella atypica PK1910/Streptococcus oralis C104; experiment: reversal of coaggregation, visual score; type: cell-based; set-up: key to coaggregation score without sugar: *: Coaggregations were reversed by both D-galactose and D-tagatose; details: for coaggregation score without sugar: pair Cl04/PK1910, coaggregation score 3 without sugar; for coaggregation score: pair PK1910/C104, water score 3, scale 0 no visible to 4 maximum coaggregation
Method: as §1, §2

[18] = test system: coaggregating pairs of oral isolates (early and late colonizers); experiment: reversal of coaggregation among fifteen oral isolates (overall); type: cell-based, bacterial strains of human gingival crevice origin
Method: as §1, §2

O=C[C@H](O)[C@@H](O)[C@@H](O)[C@H](O)CO [D-Galactose]
reversal of coaggregation [1]: 2*
coaggregation score ([1]; sugar 143 mM): 0
reversal of coaggregation [2]: 4*
coaggregation score ([2]; sugar 143 mM): 1
reversal of coaggregation [3]: 2*
coaggregation score ([3]; sugar 143 mM): 0
coaggregation score ([4]; sugar 143 mM): 0
reversal of coaggregation [4]: 3*
dissociation of coaggregate clumps ([5]; 143 mM final concentration): dissociates clumps into individual cells
coaggregation score without sugar [6]: 3*
coaggregation score ([6]; sugar 143 mM): 1
coaggregation score without sugar [7]: 3*
coaggregation score ([7]; sugar 143 mM): 0
coaggregation score without sugar [8]: 3*
coaggregation score ([8]; sugar 143 mM): 0
coaggregation score without sugar [9]: 3*
coaggregation score ([9]; sugar 143 mM): 0
coaggregation score ([10]; sugar 143 mM): 1
coaggregation score without sugar [10]: 4*
coaggregation score ([11]; sugar 143 mM): 0
coaggregation score without sugar [11]: 2*
coaggregation score ([12]; sugar 143 mM): 1
coaggregation score without sugar [12]: 3*
coaggregation score without sugar [13]: 2*
coaggregation score ([13]; sugar 143 mM): 0
coaggregation score without sugar [14]: 4*
coaggregation score ([14]; sugar 143 mM): 0
coaggregation score without sugar [15]: 2*
coaggregation score ([15]; sugar 143 mM): 0
coaggregation score without sugar [16]: 4*
coaggregation score ([16]; sugar 143 mM): 1
coaggregation score without sugar [17]: 3*
coaggregation score ([17]; sugar 143 mM): 0
reversibility of the D-tagatose sensitive coaggregations [18]: reversible

O=C(CO)[C@@H](O)[C@@H](O)[C@H](O)CO [D-Tagatose]
reversal of coaggregation [1]: 2*
coaggregation score ([1]; sugar 200 mM): 0
reversal of coaggregation [2]: 4*
coaggregation score ([2]; sugar 750 mM): 1
reversal of coaggregation [3]: 2*
coaggregation score ([3]; sugar 200 mM): 0
coaggregation score ([4]; sugar 200 mM): 0
reversal of coaggregation [4]: 3*
dissociation of coaggregate clumps ([5]; 400 mM final concentration): dissociates the clumps into individual cells
coaggregation score without sugar [6]: 3*
coaggregation score ([6]; sugar 600 mM): 0
coaggregation score without sugar [7]: 3*
coaggregation score ([7]; sugar 750 mM): 1
coaggregation score without sugar [8]: 3*
coaggregation score ([8]; sugar 200 mM): 0
coaggregation score without sugar [9]: 3*
coaggregation score ([9]; sugar 750 mM): 2
coaggregation score ([10]; sugar 750 mM): 1
coaggregation score without sugar [10]: 4*
coaggregation score ([11]; sugar 400 mM): 1
coaggregation score without sugar [11]: 2*
coaggregation score ([12]; sugar 200 mM): 1
coaggregation score without sugar [12]: 3*
coaggregation score without sugar [13]: 2*
coaggregation score ([13]; sugar 600 mM): 0
coaggregation score without sugar [14]: 4*
coaggregation score ([14]; sugar 400 mM): 0
coaggregation score without sugar [15]: 2*
coaggregation score ([15]; sugar 400 mM): 0
coaggregation score without sugar [16]: 4*
coaggregation score ([16]; sugar 750 mM): 1
coaggregation score without sugar [17]: 3*
coaggregation score ([17]; sugar 200 mM): 1
plaque reversibility, comparison of Table 2 ([18]; D-tagatose and D-sorbitol at somewhat higher concentrations than D-galactose): virtually equal to that of D-galactose
share of strong coaggregating pairs whose coaggregation was completely reversed ([18]; concentration of less than 750 mM, 28 strong coaggregating pairs tested): 60%
number of strong coaggregating pairs whose coaggregation was completely reversed ([18]; concentration of less than 750 mM, of 28 strong coaggregating pairs (score of 2 or higher) tested): 17
colonizers acted on ([18]; late colonizers were gram-negative anaerobes): acted on both early colonizers and late colonizers
